The nature of series [1]: Solubility of test item in phosphate buffered saline. The conditions noted are these: in phosphate buffered saline (PBS; 1×). Type of series: physicochemical. From the text:
The dosage for rats extrapolated using standard guidelines.
(§1) IAEC approval: IAEC approval obtained for conducting the study; test item name: UT-GT-001; batch number: G2467-145; date of manufacture: 9 Nov.

The subject of another series is high-fat fed mice model. In words: Efficacy of the vaccine in high-fat fed mice model (diet induced obesity, DIO). In kind it is in vivo, mice - Balb/c.
Text: This model is often referred to as diet induced obesity (DIO) model.
as §1
The dosage for mice extrapolated using standard guidelines.
Formulation was freshly made just before dosing. […] Immunization of peptide is along with Freund's adjuvant by proper mixing. […] Once the drop test passed (the emulsion drop floated on water as intact), the final formulation was administered to mice with the volume of 300 μl.
Immunization and blood collection. After the acclimatization period, body weights of mice were recorded.
At every blood collection, 12 hours fasting was maintained for animals. […] Blood samples were given to the diagnostic center for different blood parameter analysis.

Another series has as its system high-fat fed rat model. In words: Efficacy of the vaccine in high-fat fed rat model.
Setting [2] is: throughout study duration, rats.

Here are results for three substances from patent US12502428B1, “Immunotherapeutic composition for prevention of obesity, nonalcoholic fatty liver disease and hypertriglyceridemia, and methods of use and preparation thereof” (Utopia Therapeutics Pvt Ltd., priority 2025, dated 2025).

Where no end group is shown, it is not given here.

Text for high-fat fed rat model: Species details: species: rats (Wistar); justification: the rats (Wistar) are recognized by the international guidelines as the recommended test system and considerable historical data is available; source: good quality, healthy animals were procured from Hylasco Biotechnology India Pvt Ltd, (Reg. No. 1808/PO/RcBt/S/15/CPCSEA); animal age at the time of randomization: 07-08 weeks; animal weight at the time of randomization: males: 170±20 grams.
Husbandry and diet composition: number of animals: a total number of 6 animals (6M) per group; animal identification: individual cage tags; housing: animals were housed in stainless steel cages, one animal per cage; diet: pelleted rodent feed ad libitum; temperature: 30° C.; humidity: 30 to 70%; light: 12 hours light and 12 hours dark; water: RO purified water, ad libitum; cleaning of cages: twice in a week; acclimatization: the period of acclimatization was a minimum of seven days in the experimental room after the veterinary examination.
Formulation was freshly made just before dosing. For the primer dose of vaccine 3 mg peptide was dissolved in 1 ml of 1×PBS sterile solution to make 3 mg/mL stock solution. 0.4 mL of stock solution was combined with 0.4 mL of complete Freund's adjuvant by vigorous vortexing. For booster doses, the same procedure was followed except that the stock solution was combined with an equal amount of incomplete Freund's adjuvant instead of complete Freund's adjuvant.
Once the drop test was passed (the emulsion drop floated on water intact), the final formulation was administered to rats at 50 μL at each site of injection.
After acclimatization period, body weights of rats were recorded. The rats were randomized based on body weight after quarantine period into two groups n=6 per group as disease control (6M) and treatment group (6M). The disease control and treatment groups were given a high fat diet ad libitum for 8 consecutive weeks while the treatment group received the vaccine doses by intramuscular route as per study design as weekly once dosing for 7 consecutive weeks.
Initial primer dose was given only once during the treatment initiation and the remaining 6 booster doses were administered weekly once to the treatment group animals. Sham group animals received a normal rodent diet fortified with fat. Blood samples were collected on week 0, week 2, week 4, week 6 and week 8 from animals and analyzed for fasting blood glucose, triglycerides, total cholesterol and lipid profile. At every blood collection, 12 hour fasting was maintained for animals. On the final necropsy day, animals were subjected to euthanasia and major organs like liver, heart, lungs, kidneys, testes, spleen, and epididymal fat were collected, weighed and recorded. Half portion of liver was stored immediately in liquid nitrogen and kept at −80° C. for oil red stain and the remaining half was stored in 10% formalin solution, which was taken for histological evaluation by hematoxylin and eosin (H & E) staining.
Blood was centrifuged at 40° C., 4000 RPM for 15 minutes to separate serum and plasma. The serum and plasma samples were analyzed for serum biochemistry and fasting blood glucose respectively. Remaining serum samples were stored at −80° C. until dispatch to the test facility.
General clinical observations were conducted twice daily and detailed clinical observations were conducted once daily.

The substance “GTX-SP-208: test item of the rat study: peptide, anti-hyperlipidemic agent, powder form, Galore Tx Pharmaceuticals; presumably the FATP1 peptide of the vaccine (MRAPGAGAASVVS)” came in with a solubility in series [1] of 100%.

Turning to MRAPGAGAASVVS [vaccine, MRAPGAGAASVVS], in the series on high-fat fed mice model, the “abnormalities (clinical observation)” value is “No abnormalities were observed”, the adverse clinical signs entry is recorded as “No adverse clinical signs were observed”, the “high fat diet intake” value is on record as “normal” and the water intake entry is given as “normal”. In the series on high-fat fed rat model (8 week study), the “critical organ weights (toxicology analysis)” value is “no changes”; the “hematocrit (toxicology analysis)” value was “no changes”; the “liver function (AST and ALT) (toxicology analysis)” value is recorded as “improvement”. Moreover, in the series on high-fat fed rat model (clinical observations, rats), the adverse clinical signs result is listed as “no adverse clinical signs were observed”; the hand held observations result is listed as “responded normally”; the home cage observations entry is listed as “no abnormalities were observed”; the “nervous and muscle measurements and other observations” value is listed as “No abnormalities observed”. In addition, in the series with high-fat fed rat model (setting [2]), the open field activity entry is recorded as “normal” and the stimulus response result is listed as “normal”.

Regarding “UT-GT-001: test item of the mice study: peptide, anti-hyperlipidemic agent, powder form, Galore Tx Pharmaceuticals; presumably the FATP1 peptide of the vaccine (MRAPGAGAASVVS)”, the solubility in series [1] came to 100%.
